According to PMC8551077, “Conditions for maintenance of hepatocyte differentiation and function in 3D cultures” (iScience, 2021):
Where two headings read alike, the source gives them in different places.

Assays:
albumin = settings: ref Davies and Anderson, 1997; U. S. Food and Drug Administration, 2019; cited from earlier work
PHH spheroids = settings: 96-well format, medium similar to WEHG; ref Vorrink et al., 2018; cited from earlier work
[1] = tested on: primary human hepatocytes (PHH) spheroids; settings: 14 days of treatment, preliminary
Procedure: To compare how the best performing media influenced the DILI response, a similar approach but in the 384-well format we performed a preliminary hepatotoxicity study (Figure S6). Five prototypic compounds from the previous study were tested in HMM, WENG, and WENG+ media. […] Hepatotoxicity was evaluated after chronic exposure to each of the five drug compounds at 1×, 5×, and 20× times their clinical Cmax concentrations for two weeks, as outlined by [Vorrink et al., (2018)].
ATP conent (expressed as relative light units; RLU) was used to measure the energy status of the PHH spheroids. The spheroids were incubated in AccuMax cell dissociation solution (Thermo Fisher Scientific) for 30 min at 37°C followed by centrifugation at 100 x g for 5 min. The CellTiter-Glo3D assay (Promega, Madison, Wisconsin) was used, with slight modifications. Briefly, the plate was first left for 30 min at room temperature for temperature equilibration. Thereafter CellTiter-Glo® 3D was added, and the plate left in room temperature for another 20 min on a horizontal plate shaker. The luminescence was measured on a Spark plate reader (TECAN). The results are presented as mean values +/- SD of eight technical replicates performed on three independent occasions.
Preliminary studies of hepatotoxicity were conducted as previously described for the 96-well format ([Vorrink et al., 2018]). Briefly, PHHs were cultured in 384-well plates in HMM, WENG or WENG+ media for 1 week to form spheroids. The compounds were dissolved in dimethyl sulfoxide (DMSO), and added to the wells at a final DMSO concentration of 0.5%. As in the Vorrink et al. study, final concentrations of 1×, 5×, and 20× times the clinical Cmax of the compounds were used The exposure medium was changed every 48–72h for the 14 days of treatment. On the last day, PHH viability was assessed by measurement of ATP content (see above) and a viability below 80% of control levels was considered hepatotoxic ([Vorrink et al., 2018]).

[2] = all media (HMM, WENG, WENG+), all concentrations (1×, 5×, 20× clinical Cmax), controls gave correct results
[3] = WENG+ medium (zinc-supplemented), 1×, 5×, 20× clinical Cmax

| Compound | DILI classification in the previous study (PHH spheroids) | Hepatotoxicity (DILI signal; viability below 80% of control levels considered hepatotoxic) [1, 2] | Hepatotoxicity (DILI signal; viability below 80% of control levels considered hepatotoxic) [1, 3] | further results |
| --- | --- | --- | --- | --- |
| Cc1ncc2n1-c1ccc(Cl)cc1C(c1ccccc1F)=NC2 [midazolam] | – | – | – | Binding to albumin (albumin): highly bound |
| Cn1cnc([N+](=O)[O-])c1Sc1ncnc2nc[nH]c12 [azathioprine] | DILI-positive | positive | – | – |
| CN(C)CCCN1c2ccccc2Sc2ccc(Cl)cc21 [chlorpromazine] | DILI-positive | – | did not show a DILI signal | – |
| OC(Cn1cncn1)(Cn1cncn1)c1ccc(F)cc1F [fluconazole] | false DILI-negative | – | false negative response | Hepatotoxicity (DILI signal; viability below 80% of control levels considered hepatotoxic) ([1]; HMM medium, 1×, 5×, 20× clinical Cmax): strong DILI signal; Hepatotoxicity (DILI signal; viability below 80% of control levels considered hepatotoxic) ([1]; WENG medium, 1×, 5×, 20× clinical Cmax): strong DILI signal |
| O=C(O)Cc1ccccc1Nc1c(Cl)cccc1Cl [diclofenac] | DILI-positive | – | did not show a DILI signal | – |
| CC(=O)CC(c1ccccc1)c1c(O)c2ccccc2oc1=O (stereo not drawn) [warfarin] | – | negative | – | – |
